In brackets after ≈: the same amount, converted by molar mass.
Key:
S. aureus CI3 [1] = test: Antibiotic sensitivity of the isolate selected for in vivo experiments; type: cell-based, Staphylococcus aureus
Description: The minimum inhibitory concentration (MIC) of amoxicillin, vancomycin, erythromycin, clindamycin and azithromycin against the S. aureus strains was assessed using the broth microdilution technique as previously described (Wiegand I et al., Nature protocols 3 (2): 163-175, 2008) and breakpoints defined according to CSLI guidelines. Clinical strains resistant to at least one antibiotic in three or more antibiotic categories were defined as multidrug resistant (MDR).
A fresh culture of CI3 on 1.5% TSA plates was prepared two days before inoculation. A single colony was resuspended in 0.9% saline (ca. 2 ml) to turbidity reading 0.5 McFarland Units and then a 1 in 100 dilution in TSB was cultured overnight one day before the in vivo experiment. CI3 pellets were harvested and resuspended in fresh TSB to reach 2.5×10^9 Colony Forming Units (CFU)/ml.

S. aureus CI8 = test: Phage replication by titer; type: cell-based, Staphylococcus aureus; details: 48 hours incubation
Description: (§1) Phage titers were determined against S. aureus RN4220 (ATCC) using the double layer spot assay technique. Briefly, 100 μl of a S. aureus overnight culture was mixed with 4 mL of 0.4% TSA and poured onto a 1.5% TSA plate. […] After the plates were incubated in a humidified incubator at 37° C. overnight, plaques were counted, counts were averaged, and titers of the filtrate were calculated based on the dilution.
(§2) A 100 μl sample was taken from an S. aureus culture (10 ml in TSB) after 0 and 48 hours following treatment with clindamycin, phage or a phage clindamycin co-incubation. The sample was treated with 25 μl of chloroform, shaken for 30 seconds, centrifuged (3000 rpm, 5 minutes, room temperature) and the supernatant used to determine phage titers against the same isolate. Phage titers in plaque forming units [PFU]/mL were recorded initially and at 48 hours to assess for phage replication. To allow for phage resistant (phage insensitive) bacterial isolates to show plaques, clindamycin was added to the soft agar overlay.

S. aureus ATCC51650 = test: Phage replication by titer; type: cell-based, Staphylococcus aureus; details: 48 hours incubation
Description: as §1, §2

S. aureus CI11 = test: Phage replication by titer; type: cell-based, Staphylococcus aureus; details: 48 hours incubation
Description: as §1, §2

S. aureus CI3 [2] = test: Phage combined with ½ MIC antibiotics on planktonic S. aureus (OD600), CI3; type: cell-based, Staphylococcus aureus; details: ½ MIC antibiotic, phage MOI=0.2, 24 hours
Description: (§3) Initial screening was performed in 100 μl in 96 well plates, with follow up experiments in 10 mL culture volume. S. aureus strains were grown on 1.5% Tryptone Soya Agar (TSA) at 37° C. overnight. Single colonies were transferred to Tryptone Soya Broth (TSB) to generate a culture with a starting concentration of 5×10^5 CFU/ml. […] Antibiotics were added to the cultures at ½ MIC (according to the pretest MIC of antibiotics) if required. Optical density (OD) readings at 600 nm were recorded at 24 hours to assess the growth of bacteria co-inoculated with phage unless otherwise specified. Uninoculated, fresh media was included as a sterility control.

S. aureus C43 = test: Clindamycin MIC assay (Example 2); type: cell-based; details: Staphylococcus aureus; strain C43
Description: (§4) The MIC of clindamycin against the S. aureus strains was assessed using the broth microdilution technique as previously described (see Wiegand et al., 2008 supra). Results were interpreted as follows: Sensitive: ≤0.2 μg/mL; Intermediate: 0.4 μg/ml; Resistant: >0.6 μg/mL. The S. aureus strains sensitive to clindamycin were selected for further tests. The MIC was performed three times.

S. aureus C330 = test: Clindamycin MIC assay (Example 2); type: cell-based; details: Staphylococcus aureus; strain C330
Description: as §4

S. aureus C319 = test: Clindamycin MIC assay (Example 2); type: cell-based; details: Staphylococcus aureus; strain C319
Description: as §4

S. aureus C285 = test: Clindamycin MIC assay (Example 2); type: cell-based; details: Staphylococcus aureus; strain C285
Description: as §4

S. aureus ATCC25923 = test: Clindamycin MIC assay (Example 2); type: cell-based; details: Staphylococcus aureus; strain ATCC25923
Description: as §4

[3] = tested on: S. aureus ATCC51650 and CI11; test: Dose-dependence of clindamycin in combination with phage J-Sa36 (OD600); type: cell-based, Staphylococcus aureus; details: with J-Sa36 MOI=0.2, 24 hours; ⅛th the MIC
Description: as §3

[4] = tested on: S. aureus ATCC51650 and CI11; test: Time-dependent interaction of phage J-Sa36 and clindamycin (OD600); type: cell-based, Staphylococcus aureus; details: ½ MIC clindamycin only or J-Sa36 (MOI 0.2) only
Description: OD600 readings were taken at addition of either phage or clindamycin and following the 24-hour incubation.
The total amount of phage J-Sa36 added into the culture at different time points was adjusted to maintain MOI=0.2, according to the number of bacteria measured via CFU counts at each time point.

CCC[C@@H]1C[C@@H](C(=O)N[C@@H]([C@H]2O[C@H](SC)[C@H](O)[C@@H](O)[C@H]2O)[C@H](C)Cl)N(C)C1 [clindamycin]
antibiotic sensitivity of the isolate (S. aureus CI3 [1]): sensitive
plaques from supernatant after ½ MIC clindamycin only (S. aureus CI8): produced no plaques
plaques from supernatant after ½ MIC clindamycin only (S. aureus ATCC51650): produced no plaques
plaques from supernatant after ½ MIC clindamycin only (S. aureus CI11): produced no plaques
synergistic effects with phage J-Sa36, Sa83 and Sa87 on bacterial viability (OD600) (S. aureus CI3 [2]): synergistic effects
MIC (S. aureus C43): 0.2 µg/mL (≈ 0.471 µM)
MIC (S. aureus C330): 0.2 µg/mL (≈ 0.471 µM)
MIC (S. aureus C319): 0.2 µg/mL (≈ 0.471 µM)
MIC (S. aureus C285): 0.2 µg/mL (≈ 0.471 µM)
MIC (S. aureus ATCC25923): 0.2 µg/mL (≈ 0.471 µM)
lowest effective concentration of clindamycin required to facilitate phage J-Sa36 killing [3]: 0.025 µg/mL
bacterial viability at 24 hours, single agent [4]: did not significantly affect bacterial viability

— patent US20260286316A1, “METHOD OF PRODUCTION OF MODIFIED PHAGE AND METHOD OF TREATMENT USING SAME” (priority 2022, published 2026)
